According to patent US20110263693A1, “CELASTROL, GEDUNIN, AND DERIVATIVES THEREOF AS HSP90 INHIBITORS” (DANA-FARBER CANCER INSTITUTE, INC., priority 2006, published 2011):
Read-outs that look alike come from different tables or passages of the source.

What was measured:
[1] = tested on: celastrol signature; test: Connectivity Map query with the celastrol signature; type: cell-based, human; design: key to celastrol score (connectivity score): connectivity score, based on Kolmogorov-Smirnov statistic
Source text: (§1) Indeed, a major challenge in cell-based chemical biology and chemical genomics is the identification of compounds' targets (Gardner et al., 2003). We hypothesized that gene expression signatures could be used to identify compound action based on the similarity of such compound-induced signatures to signatures of existing drugs of known mechanism. We therefore employed a collection of gene expression profiles of drug-treated cell lines that was developed in our lab, termed the Connectivity Map (Lamb et al., 2006). This database comprises 453 genome-wide Affymetrix expression profiles derived from the treatment of human cell lines with 164 small molecules, primarily FDA-approved drugs. A 6 hr treatment time was chosen in an attempt to capture the primary, and potentially mechanistic, effects of the compounds rather than the downstream phenotypic consequences.
(§2) In order to use the Connectivity Map to gain insight into celastrol and gedunin function, we first defined a gene expression signature of celastrol and gedunin activity. The expression signatures of celastrol and gedunin were derived by expression profiling of RNA from LNCaP cells treated with celastrol (1.25 μM), gedunin (20 μM), and vehicle (DMSO) for 6 hr; signatures were defined using comparative marker selection to identify transcripts that distinguished between the compound- and vehicle-treated profiles by the signal-to-noise (SNR) metric. The enrichment of these signatures in the gene expression profiles of the Connectivity Map database was then assessed using a gene enrichment metric, the connectivity score, based on the Kolmogorov-Smirnov statistic (Lamb et al., 2003).
(§3) The celastrol and gedunin signatures were developed from RMA-processed microarray data from LNCaP cells treated with 1.25 μM celastrol or 20 μM gedunin for 6 hours. Comparative marker selection was used to identify markers that distinguished celastrol- and/or gedunin-treated samples from vehicle-treated samples by the median SNR (Golub et al., 1999). The top 50 markers that increased and decreased relative to vehicle-treated controls were used as the signatures.
(§4) The current version of the Connectivity Map data set (build01) contains genome-wide expression data for 453 treatment and vehicle control pairs, representing 164 distinct small molecules. Cell treatments and Affymetrix profiling were predominantly carried out in MCF7 cells with 6 hr treatments as detailed (Table 4) (Lamb et al., 2006). Enrichment of the induced and repressed genes of a signature within each Connectivity Map treatment profile was estimated with a metric based on the Kolmogorov-Smirnov statistic as described (Lamb et al., 2003, Lamb et al., 2006). Connectivity Map data are available at www.broad.mit.edu/cmap/ and GEO (accession number GSE5258).
(§5) For the celastrol and gedunin signatures, RMA-processed data was filtered and thresholded (min fold change=2, min absolute change=50, floor=10, ceiling=16000). Comparative marker selection (GenePattern) was used to identify markers that distinguished celastrol- and/or gedunin-treated samples from vehicle-treated samples by the median SNR. The top fifty markers that increased and decreased relative to vehicle treated controls were used as the celastrol, gedunin, or joint celastrol/gedunin signatures.
(§6) The current version of The Connectivity Map dataset (build01) contains genome-wide expression data for 453 treatment and vehicle control pairs, representing 164 distinct small molecules. Cell treatments were predominantly carried out in the MCF7 cell line for 6 h as detailed in Table 4. Affymetrix profiling was then carried out as described (Lamb et al., 2006).

[2] = tested on: gedunin signature; test: Connectivity Map query with the gedunin signature; type: cell-based, human; design: key to gedunin score (connectivity score): connectivity score, based on Kolmogorov-Smirnov statistic
Source text: as §1, §2, §3, §4, §5, §6

[3] = enrichment of the celastrol signature (1.25 μM celastrol at 6 h, LNCaP) in the compound's Connectivity Map profiles, 6 hr treatment
[4] = enrichment of the gedunin signature (20 μM gedunin at 6 hours, LNCaP) in the compound's Connectivity Map profiles, 6 hr treatment
[5] = rank by celastrol score among 164 Connectivity Map compounds
[6] = rank by gedunin score among 164 Connectivity Map compounds

## C[C@]12C=CC(=O)C=C1CC[C@@H]1[C@@H]2[C@@H](O)C[C@@]2(C)[C@H]1CC[C@]2(O)C(=O)CO [prednisolone]
[1]; [3]
  celastrol score (connectivity score): 0
[2]; [4]
  gedunin score (connectivity score): 0

## Cn1cnc([N+](=O)[O-])c1Sc1ncnc2nc[nH]c12 [azathioprine]
[1]; [3]
  celastrol score (connectivity score): 0.552
[2]; [4]
  gedunin score (connectivity score): 0.361

## O=S(=O)([O-])[O-].[Cu+2] [copper sulfate]
[1]
  celastrol rank: 68
  celastrol score (connectivity score): 0.113
[2]
  gedunin rank: 78
  gedunin score (connectivity score): 0.066

## CN(C)c1ccc(O)c2c1C[C@H]1C[C@H]3[C@H](N(C)C)C(O)=C(C(N)=O)C(=O)[C@@]3(O)C(O)=C1C2=O [minocycline]
[1]; [3]
  celastrol score (connectivity score): 0
[2]; [4]
  gedunin score (connectivity score): 0

## C[C@@H]1NC(=O)[C@H]2CCCN2C(=O)[C@H](CCCCCC(=O)[C@@H]2CO2)NC(=O)[C@@H](C)NC1=O [HC toxin]
[1]; [3]
  celastrol score (connectivity score): 0
[1]; [5]
  celastrol rank: 90
[2]; [4]
  gedunin score (connectivity score): 0.526
[2]; [6]
  gedunin rank: 15

## CC(=O)O[C@H]1C(=O)[C@@]2(C)[C@H]([C@H](OC(=O)c3ccccc3)[C@]3(O)C[C@H](OC(=O)[C@H](O)[C@@H](NC(=O)c4ccccc4)c4ccccc4)C(C)=C1C3(C)C)[C@]1(OC(C)=O)CO[C@@H]1C[C@@H]2O [paclitaxel]
[1]; [3]
  celastrol score (connectivity score): 0.319
[2]; [4]
  gedunin score (connectivity score): 0

## CC(/C=C/C(=O)NO)=C\[C@@H](C)C(=O)c1ccc(N(C)C)cc1 [trichostatin A]
[1]; [3]
  celastrol score (connectivity score): −0.02
[1]; [5]
  celastrol rank: 141
[2]; [4]
  gedunin score (connectivity score): 0.427
[2]; [6]
  gedunin rank: 29

## C=CC[C@@H]1/C=C(\C)C[C@H](C)C[C@H](OC)[C@H]2O[C@@](O)(C(=O)C(=O)N3CCCC[C@H]3C(=O)O[C@H](/C(C)=C/[C@@H]3CC[C@@H](O)[C@H](OC)C3)[C@H](C)[C@@H](O)CC1=O)[C@H](C)C[C@@H]2OC [tacrolimus]
[1]; [3]
  celastrol score (connectivity score): 0
[2]; [4]
  gedunin score (connectivity score): 0

## N=C1C=CC(=C(c2ccc(N)cc2)c2ccc(N)cc2)C=C1 [pararosaniline]
[1]; [3]
  celastrol score (connectivity score): 0.579
[2]; [4]
  gedunin score (connectivity score): 0.496

## Cc1ccc(-c2cc(C(F)(F)F)nn2-c2ccc(S(N)(=O)=O)cc2)cc1 [celecoxib]
[1]; [3]
  celastrol score (connectivity score): −0.01
[2]; [4]
  gedunin score (connectivity score): 0.114

## [H]/N=C(/N)N/C(=N/[H])NCCc1ccccc1 [phenformin]
[1]; [3]
  celastrol score (connectivity score): 0.355
[2]; [4]
  gedunin score (connectivity score): 0

## O=c1cc(N2CCOCC2)oc2c(-c3ccccc3)cccc12 [LY-294002]
[1]; [3]
  celastrol score (connectivity score): −0.512
[2]; [4]
  gedunin score (connectivity score): 0

## Nc1nc2nc[nH]c2c(=S)[nH]1 [tioguanine]
[1]; [3]
  celastrol score (connectivity score): 0
[2]; [4]
  gedunin score (connectivity score): −0.613

## NCCc1ccc(O)c(O)c1 [dopamine]
[1]; [3]
  celastrol score (connectivity score): −0.596
[2]; [4]
  gedunin score (connectivity score): 0

## COc1cc2ncnc(Nc3ccc(F)c(Cl)c3)c2cc1OCCCN1CCOCC1 [gefitinib]
[1]; [3]
  celastrol score (connectivity score): −0.713
[2]; [4]
  gedunin score (connectivity score): 0

## COc1cc2c(c(OC)c1OC)-c1ccc(OC)c(=O)cc1[C@@H](NC(C)=O)CC2 [colchicine]
[1]; [3]
  celastrol score (connectivity score): 0.391
[2]; [4]
  gedunin score (connectivity score): 0.192

## CC1=C(CC(=O)O)c2cc(F)ccc2/C1=C\c1ccc(S(C)(=O)=O)cc1 [exisulind]
[1]; [3]
  celastrol score (connectivity score): −0.038
[2]; [4]
  gedunin score (connectivity score): −0.277
